Measured values published in patent US20230310531A1, “TRIPTERYGIUM WILFORDII COMPOSITION FOR INHIBITING DRUG-RESISTANT CANCER, AND PREPARATION METHOD AND USE THEREOF” (HUAQIAO UNIVERSITY, priority 2022, published 2023).
Where two headings read alike, the source gives them in different places.

Key:
Format in all cases: cell-based, human
H460/DDP cells = test: MTT cell proliferation inhibition, H460/DDP cells; conditions: for Combination index (CI): H460/DDP; for IC50: H460/DDP cells
Method: (§1) The cisplatin-resistant cells of non-small cells, lung cancer cells A549 and H1299 and human large cells, lung cancer cells H460 (that is, A549/DDP, H1299/DDP, and H460/DDP), as well as normal human lung bronchial epithelial cells 16HBE were used as cultured cells. All the cells were cultured with a PRMI-1640 complete medium at 37° C. with a CO2 concentration of 5%. Three kinds of cell models were established by culturing the above cells to a certain amount.
(§2) The three kinds of cells in a logarithmic growth phase obtained in step 1 were separately inoculated in a 96-well plate at a density of 5×10^4 cells/mL. 90 μL of the cells were added to each well, and a complete medium as a blank control group, a DMSO negative control, a TP positive control, and experimental groups with different concentrations of compounds were set up. Three replicate wells were set up in each group, and the cells were cultured in a carbon dioxide incubator for 24 h. Drugs were added in a volume of 10 μl to each well, such that final concentrations were 10 μg/ml, 20 μg/ml, 30 μg/ml, 40 μg/ml, and 50 μg/ml. After culturing for 24 h, 48 h, and 72 h, 10 μl of an MTT solution was added to each well. After incubation for 4 h, the medium in each well was aspirated, and 100 μl of DMSO was added. The culture plate was placed in a microplate reader and shaken for 5 min to dissolve crystals. The cells were put into a microplate reader for detection, and a detection wavelength was set to OD=490 nm and a reference wavelength OD=630 nm to measure an absorbance of each well.
(§3) Relative cell viability (%)=((OD value of drug experimental group−OD value of blank control group)/(OD value of negative control group−OD value of blank control group))×100%.
(§4) Relative cell inhibition rate (%)=(1−relative cell viability)×100%.
(§5) The formula for calculating a combination index (CI) was as follows: […]
(§6) In the formula, (Dx)1, (Dx)2, and (Dx)3 represented the drug doses used alone, while (D)1, (D)2, and (D)3 represented the […] contributed by the respective drugs in the combination. […] When CI<1, there was a synergistic effect; when CI>1, there was an antagonistic effect; and when CI=1, there was […].
(§7) A calculation method of IC50 was as follows: SPSS software was used for calculation: after entering the SPSS data editor, the (Variable View) was activated to define variables, and under the variable name (Name), informations were input as follows: “dose/concentration”, “inhibition rate”, “total value”. A parameter Analysis Regression Probit was selected, the “Probit Analysis” dialog box was brought up, the “Dose/Concentration” was selected into the “Covariates” column, the “Inhibition Rate” was selected into the “Response Frequency” column, and the “Total Value” was selected into the “Total Observed” column. In the “Transform” column, “Log base 10” was selected; in the “Mode 1” column, the “Probit” probability unit model was selected; and in the “Options” column, “Calculate from Data” was selected.
The experimental design, the five compounds, and a method for determining the inhibitory effect on cisplatin-resistant cells H460/DDP were the same as those in Example 1.

H1299/DDP cells = test: MTT cell proliferation inhibition, H1299/DDP cells; conditions: for Combination index (CI) / drug effect increased compared with TP alone: H1299/DDP; for drug effect increased compared with TP alone: used in combination with the TP
Method: as §1, §2, §3, §4, §5, §6, §7
The experimental design, the five compounds, and a method for determining the inhibitory effect on cisplatin-resistant cells H1229/DDP were the same as those in Example 1.

A549/DDP cells = test: MTT cell proliferation inhibition, A549/DDP cells; conditions: for cell inhibition rate increased, two drugs combined compared with the single drug group: TP 4 μg/ml plus compound (E 1, H 11, I 0.9, J 2, P 20 μg/ml), equal volume ratio; for IC50: compound alone
Method: as §1, §2, §3, §4, §5, §6, §7
When drugs were used in combination, the TP was compatible with any one or any two of the compounds E, H, I, J, and P separately in an equal volume ratio.

[1] = 48 h, TP 2.5 μg/ml, compound at higher dose (E 2, H 22, I 1.8, J 4, P 40 μg/ml)
[2] = 48 h, TP 2.5 μg/ml, compound at lower dose (E 1, H 11, I 0.9, J 2, P 20 μg/ml)
[3] = 48 h, TP 5 μg/ml, compound at higher dose (E 2, H 22, I 1.8, J 4, P 40 μg/ml)
[4] = 48 h, TP 5 μg/ml, compound at lower dose (E 1, H 11, I 0.9, J 2, P 20 μg/ml)
[5] = Homo sapiens, NCI-H460, 48 h, compound alone (FIGS. 1A-R), read-out: IC50
[6] = Homo sapiens, NCI-H1299, H1299/DDP, in combination with TP 2.5 μg/ml, read-out: IC50 concentrations doses
[7] = Homo sapiens, NCI-H1299, H1299/DDP, in combination with TP 5 μg/ml, read-out: IC50 concentrations doses
[8] = A549/DDP, TP 2.5 μg/ml, compound at higher dose (E 2, H 22, I 1.8, J 4, P 40 μg/ml)
[9] = A549/DDP, TP 2.5 μg/ml, compound at lower dose (E 1, H 11, I 0.9, J 2, P 20 μg/ml)
[10] = A549/DDP, TP 5 μg/ml, compound at higher dose (E 2, H 22, I 1.8, J 4, P 40 μg/ml)
[11] = A549/DDP, TP 5 μg/ml, compound at lower dose (E 1, H 11, I 0.9, J 2, P 20 μg/ml)
[12] = Homo sapiens, A549 cells (A549/DDP per FIG. 2 legend), 48 h, read-out: IC50
[13] = 48 h, compound alone (FIGS. 1A-R)

| Structure (SMILES) | Combination index (CI) (H460/DDP cells; [1]) | Combination index (CI) (H460/DDP cells; [2]) | Combination index (CI) (H460/DDP cells; [3]) | Combination index (CI) (H460/DDP cells; [4]) | IC50 (H460/DDP cells; [5]) | Combination index (CI) (H1299/DDP cells; [1]) | Combination index (CI) (H1299/DDP cells; [2]) | Combination index (CI) (H1299/DDP cells; [3]) | Combination index (CI) (H1299/DDP cells; [4]) | IC50 (H1299/DDP cells; [6]) | IC50 (H1299/DDP cells; [7]) | cell inhibition rate increased, two drugs combined compared with the single drug group (A549/DDP cells; A549/DDP, 48 h) | Combination index (CI) (A549/DDP cells; [8]) | Combination index (CI) (A549/DDP cells; [9]) | Combination index (CI) (A549/DDP cells; [10]) | Combination index (CI) (A549/DDP cells; [11]) | IC50 (A549/DDP cells; [12]) | IC50 (H460/DDP cells; [13]) | drug effect increased compared with TP alone (H1299/DDP cells) | further results |
| --- | --- | --- | --- | --- | --- | --- | --- | --- | --- | --- | --- | --- | --- | --- | --- | --- | --- | --- | --- | --- |
| CC(C)c1ccc2c(c1O)CC[C@H]1C(C)(C)[C@@H](O)CC[C@]21C [Compound P, Triptobenzene B] | 0.1961 | 0.2435 | 0.2976 | 0.3777 | 39.2 µg/mL | 1.1079 | 1.7041 | 0.9326 | 0.6521 | 12 µg/mL | 11 µg/mL | 1.34 times | 1.2660 | 1.0764 | 1.4985 | 1.1918 | 6.72 µg/mL |  |  | IC50 (H1299/DDP cells; Homo sapiens, NCI-H1299, 48 h, H1299/DDP cells, 48 h, compound alone (FIGS. 5A-E), read-out: IC50): 12.8 µg/mL |
| CC(C)[C@]12O[C@H]1[C@@H]1O[C@]13[C@]1(O[C@H]1C[C@H]1C4=C(CC[C@@]13C)C(=O)OC4)[C@@H]2O [TP, triptolide, reference compound] |  |  |  |  | 1.97 µg/mL |  |  |  |  |  |  |  |  |  |  |  |  |  |  | IC50 (A549/DDP cells; Homo sapiens, A549/DDP, A549DDP cells, read-out: IC50 value of A549DDP cells used as a synergistic dose): 7.83 µg/mL |
| CC(C)c1ccc2c(c1)C(=O)C[C@H]1[C@@](C)(CO)[C@@H](O)CC[C@]21C [Compound J, (3S,4S,5R,10S)-3,19-dihydroxy-7-ox-oabieta-8,11,13-triene] | 0.3260 | 0.5384 | 0.3064 | 0.6519 | 4.32 µg/mL | 0.9855 | 0.6741 | 0.5884 | 0.6735 | 1.84 µg/mL | 0.9 µg/mL | 1.58 times | 0.9025 | 0.9333 | 0.9982 | 0.6952 | 6.92 µg/mL |  |  | IC50 (H460/DDP cells; Homo sapiens, NCI-H460, 48 h, compound alone (FIGS. 7A-E), read-out: IC50): 0.61 µg/mL; inhibition rate of combination with TP, times higher than TP alone (A549/DDP cells; A549/DDP, combination with TP): 1.32 times |
| C[C@@]1(C(=O)O)CC[C@]2(C)CC[C@]3(C)C4=CC(=O)c5c(cc(O)c(O)c5C=O)[C@]4(C)CC[C@@]3(C)[C@@H]2C1 [Compound H, Demethylzeylasteral] | 0.5569 | 0.7051 | 0.4270 | 0.6318 |  | 0.9651 | 0.8151 | 0.8689 |  |  |  | 1.54 times | 0.7225 | 0.8749 | 0.7206 | 1.1462 |  | 22.31 µg/mL | 2.12 times |  |
| CC(=O)OCC12C(OC(=O)C=Cc3ccccc3)CCC(C)(O)C13OC(C)(C)C(C(OC(C)=O)C2OC(=O)c1cccnc1)C3OC(C)=O (stereo not drawn) [Compound E, 1β-(E-cinnamoyloxy)-4a-hydroxy-5a,7β,11-triacetoxy-8β-nicotinoyloxy-dihydroagarofuran] | 0.6604 | 1.4669 | 0.5008 | 1.1134 |  | 1.1646 | 0.7473 | 0.8025 |  |  |  | 2.01 times | 1.1269 | 0.8986 | 1.1213 | 0.8688 |  | 1.98 µg/mL | 2.15 times | IC50 (H460/DDP cells; 48 h, compound alone (FIGS. 7A-E)): 0.58 µg/mL; IC50 (A549/DDP cells; A549 cells (A549/DDP per FIG. 2 legend), 48 h): 5.03 µg/mL |
| CC(C)c1ccc2c(c1)CCC1C(C)(CO)C(=O)CCC21C (stereo not shown) [Compound I, Triptobenzene R] | 1.2499 | 1.1241 | 0.7619 | 0.9327 |  | 1.1259 | 0.7373 | 1.1503 | 0.8353 |  |  | 1.81 times | 0.8583 | 1.3864 | 0.8288 | 0.8316 |  | 1.893 µg/mL |  | IC50 (H1299/DDP cells; H1299 cells (H1299/DDP per FIG. 2 legend), 48 h, compound alone): 8.61 µg/mL; inhibitory effect compared with TP (A549/DDP cells; A549/DDP, 48 h, compound alone (FIGS. 3A-E)): better inhibitory effect on cells than that of the TP |
